The target in data set [1] is T1, eqBChE (equine butyrylcholinesterase) (Equus caballus, UniProt P81908).
T1 construct: butyrylcholinesterase (eqBuChE, E.C. 3.1.1.8, from equine serum); purchased Sigma Aldrich; host or cells: equine serum
As to the kind of experiment: biochemical.
Experimental: The eeAChE and eqBChE inhibitory activities of the compounds under study were determined following the Ellman’s method [32, 33]
Substrate solutions (ATCI or BCTI) were prepared in deionized water (conductivity ˂ 0.1 µS.cm-
Evaluation of eel acetylcholinesterase and equine butyrylcholinesterase inhibitory
The eeAChE and eqBChE inhibitory activities of the compounds under study were evaluated following the Ellman’s method [1, 2]. Briefly, a mixture containing sodium phosphate buffer, enzyme (final concentration: eeAChE 0.05 U/mL and eeBChE 0.05 U/mL), DTNB (final concentration: 400 µM) and the test compounds/reference inhibitors were preincubated for 5 minutes at 30 °C in a 96-well microplate (BRANDplates, pureGradeTM, BRAND GMBH, Wertheim, Germany). In control experiments, sodium phosphate buffer was used instead of the
ºC in a microplate reader (BioTek Synergy HT from BioTek Instruments, Winooski, VT, USA).
The rates of the substrate enzymatic hydrolysis were determined, normalized and plotted against the respective inhibitor concentration. IC50 values were obtained from the dose-response curves
and were expressed as mean ± standard deviation. IC50 values were determined in at least three
independent experiments, each performed at least in triplicates.

The nature of data set [2]: Differential pulse voltammetry (DPV). Type of data set: physicochemical. The settings on record: pH 7.4, glassy carbon electrode; for Ep (redox potential): first anodic peak. Here is the method: DPV experiments were performed as described in literature (see supplementary information).
1.4. Electrochemical measurements
Voltammetric studies were carried out using an Autolab PGSTAT 12 potentiostat/galvanostat (Metrohm-Autolab, Netherlands) and one compartment glass electrochemical cell. The voltammetric data were acquired at room temperature using a three-electrode system: a glassy carbon working electrode (GCE) (d = 2 mm), a platinum wire counter electrode and an Ag/AgCl saturated KCl reference electrode (Metrohm, Switzerland). The working electrode was polished manually with an aqueous slurry of alumina powder (BDH Chemicals, VWR, USA) on a microcloth pad and rinsed with water before use. A Crison pH-meter with glass electrode was used for the pH measurements (Crison, Barcelona, Spain).
Differential pulse voltammetry (DPV) experiments were performed as described elsewhere. Test solutions were prepared directly in the electrochemical cell, by diluting ethanolic solutions of the compounds under study (10 mM, 100 μL) in the supporting electrolyte (10 mL) to obtain a final concentration of 100 μM. The scan rate used in differential pulse voltammetry (DPV) was 5 mV.s−1.
All reagents used were of analytical grade or of the highest grade available. Neutral red (NR) solution, resazurin, Dulbecco’s Modified Eagle’s Medium (DMEM) with 4.5 g/L glucose, retinoic acid, 12-O-tetradecanoylphorbol-13-acetate (TPA), 2’,7’-dichorofluorescein diacetate (DCFH-DA), Rhodamine 123 (RHO 123) and zosuquidar (ZOS) were obtained from Sigma Aldrich. Reagents used in cell culture such as heat-inactivated fetal bovine serum (FBS), antibiotic (10,000 U/mL penicillin, 10,000 μg/mL streptomycin), MEM Non-Essential Amino Acids solution (100×) (MEM NEAA), Hanks’ balanced salt solution (HBSS) with or without calcium and magnesium (HBSS(+/+) or HBSS (-/-), respectively) and 0.25% trypsin/1 mM ethylenediamine tetraacetic acid (EDTA) were purchased from Gibco Laboratories (Lenexa, KS, USA). Dimethylsulfoxide (DMSO), absolute ethanol, sodium bicarbonate and acetic acid were obtained from Merck (Darmstadt, Germany). Triton™ X-100 detergent solution was acquired from Thermo Fisher Scientific (Waltham, MA, USA).
Human neuroblastoma SH-SY5Y cells were routinely cultured into […] and maintained in DMEM with 4.5 g/L glucose, supplemented with 10 % heat-inactivated FBS (v/v), 1 % MEM NEAA (v/v) and 1% penicillin/streptomycin (v/v). Cells were maintained at 37 °C in a humidified, 5% CO2−95% air atmosphere, and the cell culture medium was changed every 2-3

The test system of data set [3] is differentiated SH-SY5Y cells. Put plainly: Resazurin reduction assay (cytotoxicity). The data set is classed as cell-based, human. The conditions noted are these: 24 h. How it is done:
For cytotoxicity studies, differentiated SH-SY5Y cells were incubated with increasing concentrations of the test compounds (0.20–100 µM) for 24 h. Controls were treated with culture media containing 0.1% DMSO. Cell viability was estimated using two different methods: resazurin reduction assay and NR uptake assay. […]
days. The cultures were passaged once a week by trypsinization (0.25 % trypsin/1 mM EDTA).
To avoid phenotypic changes, the cells used for all experiments were taken between 19th and 28th passages. Cells were differentiated as described previously by Fernandes et al.. Briefly, SH-SY5Y cells were seeded onto 96-well plates at a density of 25,000 cells/cm2 in cell culture medium with trans-retinoic acid (RA) (final concentration of 10 µM) and incubated for 3 days at 37 °C in a humidified, 5% CO2−95% air atmosphere. The cell culture medium was then removed and replaced with medium supplemented with 12-O-tetradecanoylphorbol-13-acetate (TPA) (final concentration 80 nM), and cells were incubated for 3 days. Stock solutions of RA (10 mM) and TPA (80 µM) were prepared in DMSO.
1.5.3. Cytotoxicity assays
1.5.3.1. Resazurin reduction assay
Resazurin is a non-fluorescent, non-toxic water-soluble dye able to permeate through cell […]
highly fluorescent resorufin [8, 9]. Since the conversion of resazurin into resorufin occurs mostly in mitochondria, the amount of resorufin produced can be used as indicator of metabolic activity. The quantity of resorufin production is proportional to the number of viable cells in culture and can be quantified fluorometrically or colorimetrically.
Resazurin reduction assay was performed as previously described by Fernandes et al..
Briefly, after the 24 h incubation periods with the test compounds, the cell culture medium was removed and replaced with fresh culture medium with resazurin (10 μg/mL) prepared in cell culture medium. Differentiated SH-SY5Y cells were incubated for 2 h at 37 °C in a humidified 5% CO2−95% air atmosphere. Then, the fluorescence was read in a multiwell microplate reader (PowerWave XS from BioTek Instruments, Vermont, US), using an excitation wavelength of 540 nm and an emission wavelength of 590 nm. The results were expressed as the percentage of resazurin reduction relative to that of the control (non-treated) cells [resazurin reduction (% of […]
1.5.3.2. Neutral red uptake assay
The neutral red (NR) uptake assay is based on the ability of viable cells to incorporate the supravital dye NR and retain it inside the lysosomes. NR uptake assay was performed as previously described by Fernandes et al. Briefly, after the 24 h incubation periods with the test compounds, the cell culture medium was removed and NR solution ([…]) in fresh cell culture medium was added. Differentiated SH-SY5Y cells and Caco-2 cells were incubated for 2 h and 1 h, respectively, at 37 °C in a humidified, 5% CO2−95% air atmosphere. Then, the cell culture medium was removed and replaced by ethanol absolute/distilled water (1:1) with 5 % acetic acid to liberate the dye from the viable cells. The absorbance was measured at 540 nm in a […]

Data set [4] relates to differentiated SH-SY5Y cells. As to the kind of experiment: Neutral red (NR) uptake assay (cytotoxicity). The data set is classed as cell-based, human. The conditions noted are these: 24 h; for effect on NR uptake: increasing concentrations up to 100 µM.
Experimental: To avoid phenotypic changes, the cells used for all experiments were taken between 19th and 28th passages. Cells were differentiated as described previously by Fernandes et al. [6]. Briefly, SH-SY5Y cells were seeded onto 96-well plates at a density of 25,000 cells/cm2 in cell culture medium with trans-retinoic acid (RA) (final concentration of 10 µM) and incubated for 3 days at
The neutral red (NR) uptake assay is based on the ability of viable cells to incorporate the supravital dye NR and retain it inside the lysosomes [11]. NR uptake assay was performed as previously described by Fernandes et al. [12] Briefly, after the 24 h incubation periods with the test compounds, the cell culture medium was removed and NR solution (50 mg/mL) in fresh cell culture medium was added. Differentiated SH-SY5Y cells and Caco-2 cells were incubated for 2
multiwell microplate reader (PowerWave XS from BioTek Instruments). The results were
expressed as the percentage of NR uptake relative to that of the control (non-treated) cells [NR
uptake (% of control)] ± standard error mean (SEM) of at least three independent experiments.
Stock solutions of the test compounds (10 µM) were prepared in DMSO and diluted in
Data set [5] is described as follows: Chromatographic hydrophobicity index by gradient RP-HPLC at pH 2.3.
Experimental: Chromatographic hydrophobicity indexes (CHIs) at pH 2.3 were determined using an experimental protocol described elsewhere [45, 46] and included in the supplementary information.
Evaluation of the chromatographic hydrophobicity index
Chromatographic hydrophobicity indexes (CHIs) values were determined using the
retention times (tR) of samples and a mixture of reference compounds. The data was acquired on
a Shimadzu high-performance liquid chromatograph SPD-M20A system (Shimadzu, Kyoto,
Japan) with a Luna C18 (2) column (Phenomenex, CA, USA) 150×4.6 mm, 5 µm. In CHI
determinations at pH 2.3, mobile phase A was aqueous solution of acetic acid 1 % (v/v) (pH 2.3),
and mobile phase B was acetonitrile. The following gradient program was applied: 1 mL/min
Calibration plots were obtained using a mixture of the following compounds:
paracetamol, theophylline, caffeine, benzimidazole, colchicine, carbamazepine, indole,
propiophenone, butyrophenone, valerophenone, and heptanophenone (Table S1, Figure S2).
hydrophobicity index (CHI) values were calculated as previously described [13, 14].
Setting [6] is: at concentrations above 12.5 µM.

What is called IC50 is the concentration at which inhibition is half-maximal. A high value points to weaker potency.

Structures are written as SMILES. Bounds are passed on as bounds.

T1 sequence (P81908 whole entry): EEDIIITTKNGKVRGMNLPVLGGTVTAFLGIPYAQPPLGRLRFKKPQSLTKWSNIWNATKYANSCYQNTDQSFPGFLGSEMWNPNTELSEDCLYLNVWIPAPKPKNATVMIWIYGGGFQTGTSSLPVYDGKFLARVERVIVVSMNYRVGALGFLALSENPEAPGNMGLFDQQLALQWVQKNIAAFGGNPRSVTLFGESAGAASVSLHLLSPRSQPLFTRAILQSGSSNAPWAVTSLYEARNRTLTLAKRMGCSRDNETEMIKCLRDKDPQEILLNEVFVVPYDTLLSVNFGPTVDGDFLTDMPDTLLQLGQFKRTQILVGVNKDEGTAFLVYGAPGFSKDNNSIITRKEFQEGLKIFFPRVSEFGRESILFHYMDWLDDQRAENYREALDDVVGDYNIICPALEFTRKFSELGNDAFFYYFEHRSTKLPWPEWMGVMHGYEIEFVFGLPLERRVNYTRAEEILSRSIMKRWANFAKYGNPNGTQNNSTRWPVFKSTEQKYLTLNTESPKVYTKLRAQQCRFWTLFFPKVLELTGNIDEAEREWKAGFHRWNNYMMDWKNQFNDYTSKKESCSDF

In the case of `O=C(/C=C/C=C/c1ccc2c(c1)OCO2)NCCCC[P+](c1ccccc1)(c1ccccc1)c1ccccc1.[Br-]` [Compound 2, (4-((2E,4E)-5-(Benzo[d][1,3]dioxol-5-yl)penta-2,4-dienamido)butyl)triphenylphosphonium bromide], in data set [1], the IC50 amounted to 0.0282 ± 0.0014 µM and the “SI (1): eqBChE selectivity index = IC50(eeAChE)/IC50(eqBChE)” value came out at 226. For the same compound, in data set [2], the “Ep (redox potential), second overlapped anodic peak” value turned out to be 1070 mV and the “Ep (redox potential)” value was found to be 942 mV. The “concentrations in which the resazurin reduction was significantly decreased” value in data set [3] is reported as not below 50 µM. Besides, the “resorufin fluorescence (% of control)” value in data set [3] (at concentrations above 25 µM) is recorded as less than 85%. Further, the “effect on NR uptake” value in data set [4] is listed as “remained constant”. The compound also displayed a CHI in data set [5] of 42.8.
`O=C(/C=C/C=C/c1ccc2c(c1)OCO2)NCCCCCC[P+](c1ccccc1)(c1ccccc1)c1ccccc1.[Br-]` [Compound 3, (6-((2E,4E)-5-(Benzo[d][1,3]dioxol-5-yl)penta-2,4-dienamido)hexyl)triphenylphosphonium bromide]: in data set [1], the half-inhibitory concentration (IC50) turned out to be 0.0179 ± 0.0009 µM and the “SI (1): eqBChE selectivity index = IC50(eeAChE)/IC50(eqBChE)” value amounted to 314. Further, in data set [2], the “Ep (redox potential), second overlapped anodic peak” value amounted to 1083 mV and the “Ep (redox potential)” value is on record as 931 mV. Also, the “resorufin fluorescence (% of control)” value in data set [3] (setting [6]) is reported as less than 85%. The “lysosomal toxicity (NR uptake)” value in data set [4] (setting [6]) is given as “significant lysosomal toxicity”. The compound also came in with a CHI in data set [5] of 45.8.
In the case of `O=C(/C=C/C=C/c1ccc(O)c(O)c1)NCCCC[P+](c1ccccc1)(c1ccccc1)c1ccccc1.[Br-]` [Compound 4, (4-((2E,4E)-5-(3,4-Dihydroxyphenyl)penta-2,4-dienamido)butyl)triphenylphosphonium bromide], in data set [1], half-maximal inhibition (IC50) required 0.0619 ± 0.0042 µM and the “SI (1): eqBChE selectivity index = IC50(eeAChE)/IC50(eqBChE)” value turned out to be 36. Besides, the “Ep (redox potential)” value in data set [2] worked out at 125 mV. The “effect on resazurin reduction” value in data set [3] (concentrations up to 100 µM) was “did not markedly affect”. Also, the “effect on NR uptake” value in data set [4] is listed as “remained constant”. The same compound came in with a CHI in data set [5] of 34.4.
On to `O=C(/C=C/C=C/c1ccc(O)c(O)c1)NCCCCCC[P+](c1ccccc1)(c1ccccc1)c1ccccc1.[Br-]` [Compound 5, (6-((2E,4E)-5-(3,4-Dihydroxyphenyl)penta-2,4-dienamido)hexyl)triphenylphosphonium bromide], for which, in data set [1], inhibition was half-maximal at 0.0341 ± 0.0029 µM (IC50) and the “SI (1): eqBChE selectivity index = IC50(eeAChE)/IC50(eqBChE)” value is 62. In addition, the “Ep (redox potential)” value in data set [2] is given as 144 mV. Further, in data set [3], the “concentrations in which the resazurin reduction was significantly decreased” value was not below 50 µM. Moreover, the “resorufin fluorescence (% of control)” value in data set [3] (at concentrations above 25 µM) is reported as less than 85%. For the same compound, the “effect on NR uptake” value in data set [4] is recorded as “remained constant”. In data set [5], this compound yielded a CHI of 37.2.

Values taken from paper PMC7926627, “Fine-Tuning the Biological Profile of Multitarget Mitochondriotropic Antioxidants for Neurodegenerative Diseases” (Antioxidants, 2021).
